# Reference: the supplement of paper PMC11208160
# Test: recombinant barcode read abundance after kanamycin selection (control-corrected) (log10(CPM+1)); higher = more efficient recombination; sequences stand for … in AGTGCAGAGAAAATCGGCCAGTTTTCTCTGCCTGCAGTCCGCATGCCGT…AGATTTATGCAGCGGACTGCCTTTCTCCCAAAGTGATAAACCGGACAGTATCATGGACCGGTTTTCCCGGTAATCCGTATTTGCAAGGTTGGTTTCACT; site = the 11-nt target
# Procedure, shortened: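 Duplicate cultures were plated either on chloramphenicol/ampicillin LB agar, serving as control, or on chloramphenicol/ampicillin/kanamycin with 0.1 mM IPTG. These came from a pooled E. coli library co-electroporated with a donor plasmid, each member pairing a target with an IS621 bridge RNA target-binding loop. Recombination efficiency equals averaged, control-corrected counts per million of recombinant-junction barcodes. It is listed as log10(CPM+1).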
# 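Further: IS621 recombinase and bridge RNA in Escherichia coli cells.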
row,Sequence,recombinant barcode read abundance (log10)
1,CAACCGACTTGGGTTCTAACCTGTTGCCT (site CAACCGCCTAG),0.265
2,CAACCGACTTGGGTTCTAACCTGTTGCCT (site CAACCGGCTAG),0.0866
3,CAACCGACTTGGGTTCTAACCTGTTGCCT (site CAACCGTCTAG),0.0239
4,CAACCGCCTTGGGTTCTAACCTGTTGCCT (site CAACCGACTAG),0.411
5,CAACCGCCTTGGGTTCTAACCTGTTGCCT (site CAACCGCCTAG),1.43
6,CAACCGCCTTGGGTTCTAACCTGTTGCCT (site CAACCGGCTAG),0.402
7,CAACCGCCTTGGGTTCTAACCTGTTGCCT (site CAACCGTCTAG),0.864
8,CAACCTACTTGGGTTCTAACCTGTTGCCT (site CAACCTACTAG),0.586
9,CAACCTACTTGGGTTCTAACCTGTTGCCT (site CAATCTACTAG),0.121
10,CAACTTCCTTGGGTTCTAACCTGTTGCGT (site CAACTTCCTAC),1.18
11,CAACTTCCTTGGGTTCTAACCTGTTGCGT (site CGGCTTCCTAC),0.496
12,CAAGACGCTTGGGTTCTAACCTGTTGCCT (site CAAGACGCTAG),1.4
13,CAAGACGCTTGGGTTCTAACCTGTTGCCT (site CTAGACGCTAG),1.34
14,CAAGATGCTTGGGTTCTAACCTGTTGCCT (site CAAGATGCTAG),1.21
15,CAAGATGCTTGGGTTCTAACCTGTTGCCT (site CACGATGCTAG),0.304
16,CAAGATGCTTGGGTTCTAACCTGTTGCCT (site CAGGATGCTAG),0.222
17,CAAGATGCTTGGGTTCTAACCTGTTGCCT (site CATGATGCTAG),0.366
18,CAAGATTCTTGGGTTCTAACCTGTTGCCT (site CAAGATTCTAG),1.69

row,Sequence,recombinant barcode read abundance (log10)
1,CAAGATTCTTGGGTTCTAACCTGTTGCCT (site CCAGATTCTAG),0.71
2,CAAGATTCTTGGGTTCTAACCTGTTGCCT (site CGAGATTCTAG),0
3,CAAGATTCTTGGGTTCTAACCTGTTGCCT (site CTAGATTCTAG),0.6
4,CAAGTGACTTGGGTTCTAACCTGTTGCCT (site CAAGTGACTAG),1.68
5,CAAGTGACTTGGGTTCTAACCTGTTGCCT (site TCCTATGCTTA),0.129
6,CAAGTGCCTTGGGTTCTAACCTGTTGCCT (site CAAGTGCCTAG),2.01
7,CAAGTGCCTTGGGTTCTAACCTGTTGCCT (site CAAGTTCCTAG),0.064
8,CAAGTTCCTTGGGTTCTAACCTGTTGCCT (site CAAGTGCCTAG),0.62
9,CAAGTTCCTTGGGTTCTAACCTGTTGCCT (site CAAGTTCCTAG),1.03
10,CAATACACTTGGGTTCTAACCTGTTGCCT (site CAATACACTAG),2.34
11,CAATACACTTGGGTTCTAACCTGTTGCCT (site CCACACACTAG),0.0608
12,CAATCGTCTTGGGTTCTAACCTGTTGCTT (site CAATCGTCTAA),0.629
13,CAATCGTCTTGGGTTCTAACCTGTTGCTT (site GAATCTTCTAA),0.0659
14,CAATCTGCTTGGGTTCTAACCTGTTGCCT (site CAATCTGCTAG),0.233
15,CAATCTGCTTGGGTTCTAACCTGTTGCCT (site CACTCTGCTAG),0.0111
16,CAATCTGCTTGGGTTCTAACCTGTTGCCT (site CAGTCTGCTAG),0.101
17,CAATCTGCTTGGGTTCTAACCTGTTGCCT (site CATTCTGCTAG),0.0288
18,CAATGCTCTTGGGTTCTAACCTGTTGCCT (site CAATGCTCTAG),1.84
